Patent publication US7998972B2, “1H-imidazo[4,5-c]quinoline derivatives in the treatment of protein kinase dependent diseases” (Novartis AG, priority 2002, dated 2011)

How the values were obtained:
Kdr = target: T1, Kdr (Homo sapiens, UniProt P35968); assay: Inhibition of KDR protein tyrosine kinase in vitro; assay type: biochemical; conditions: GST-fused KDR kinase domain, polyGluTyr(4:1), 8 μM ATP; read-out: IC50 range class, inhibition of Kdr in vitro
T1 construct: The kinase domain of KDR is expressed as GST-fusion protein using the baculovirus system; made in house
T1 sequence (P35968 834-1162 limits assumed): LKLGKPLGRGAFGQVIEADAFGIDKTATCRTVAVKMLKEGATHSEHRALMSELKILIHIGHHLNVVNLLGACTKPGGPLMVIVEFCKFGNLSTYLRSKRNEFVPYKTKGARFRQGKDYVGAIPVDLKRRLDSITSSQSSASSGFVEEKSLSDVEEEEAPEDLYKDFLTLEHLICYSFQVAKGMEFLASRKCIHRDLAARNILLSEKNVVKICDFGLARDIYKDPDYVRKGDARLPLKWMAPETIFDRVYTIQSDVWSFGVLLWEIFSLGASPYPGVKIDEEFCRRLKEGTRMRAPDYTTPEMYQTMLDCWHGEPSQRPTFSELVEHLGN
Description: Inhibition of the enzyme activity of KDR protein tyrosine kinase can be determined as follows: The kinase domain of KDR is expressed as GST-fusion protein using the baculovirus system. The in vitro kinase assay is performed in 96-well plates using the recombinant GST-fused kinase domains expressed in baculovirus and purified over glutathione-Sepharose. ^33P-ATP (Amersham) is used as the phosphate donor, and the polyGluTyr(4:1) peptide (Sigma) is used as acceptor. The buffer is composed as follows: 29 mM Tris-HCl, pH 7.5; 10 mM MgCl2, 1 μM MnCl2, 8 μM ATP, 0.2 μCi ^33P-ATP, 8 μg/ml polyGluTyr. The reaction os carried out in a volume of 30 μl for 10 min at room temperature in the presence of either 1% DMSO or the test compound of formula I at the required concentration in 1% DMSO […]. The reaction is stopped by the addition of ethylenediaminetetraacetic acid to a final concentration of 60 mM. The assay mixture is then transferred onto a Immobilon-PVF membrane (Millipore), which is subsequently washed four times with 0.05% H3PO4 and once with ethanol. After drying, […] of Microscint Cocktail (Packard) is added and scintillation counting is performed (Hewlett-Packard Top Count). IC50 values are calculated by linear regression analysis of the percentage inhibition of each test compound in duplicate, at three concentrations (usually 0.01, 0.1 and 1 μM or 0.1, 1 and 10 μM).

CDK1 = assay: Inhibition of CDK1 (p34cdc2/cyclin Bcdc13 kinase, histone H1 substrate); assay type: biochemical, starfish; conditions: read-out: IC50 range class, inhibition of CDK1 in vitro
Description: Starfish oocytes are induced into the M phase with 10 μM 1-methyl-adenine, frozen in liquid nitrogen and stored at −80° C. The ooctyes are homogenized and centrifuged, as described in D. Arlon et al., Cell 55, 371-378 (1988) and V. Rialet und L. Meijer, Anticancer Res. 11, 1581-1590 (1991), as required. For purification of the p34^cdc2/cyclin B^cdc13 kinase, the supernatant of the oocytes is introduced onto p9^CKShs Sepharose grains produced from recombinant human protein p9^CKShs, as described in L. Azzi et al., Eur. J. Biochem. 203, 353-360 (1992). After 30 minutes at 4° C. under constant rotation, the grains are washed thoroughly and the active p34^cdc2/cyclin B^cdc13 kinase is eluted with free protein p9^CKShs (3 mg/ml). The kinase eluted is tested as described in L. Meijer et al., EMBO J. 8, 2275-2282 (1989) and EMBO J. 10, 1545-1554 (1991), using histone H1 as the substrate. In this test, the compounds of the formula I and their pharmaceutically acceptable salts have an inhibiting concentration IC50 [μmol/l] of 0.01 to 10, usually of 0.05 to 1.

c-Met = target: T2, c-Met (Homo sapiens, UniProt P08581); assay: Inhibition of c-Met kinase (33P-ATP filter assay); assay type: biochemical; conditions: GST-c-Met cytoplasmic domain, poly(EY) substrate; read-out: IC50 range class, inhibition of c-Met
T2 construct: c-Met cytoplasmic domain (amino acids 969 to C-terminus); made in house; host or cells: baculovirus / Sf9 cells
T2 sequence (P08581 969-1390 limits assumed): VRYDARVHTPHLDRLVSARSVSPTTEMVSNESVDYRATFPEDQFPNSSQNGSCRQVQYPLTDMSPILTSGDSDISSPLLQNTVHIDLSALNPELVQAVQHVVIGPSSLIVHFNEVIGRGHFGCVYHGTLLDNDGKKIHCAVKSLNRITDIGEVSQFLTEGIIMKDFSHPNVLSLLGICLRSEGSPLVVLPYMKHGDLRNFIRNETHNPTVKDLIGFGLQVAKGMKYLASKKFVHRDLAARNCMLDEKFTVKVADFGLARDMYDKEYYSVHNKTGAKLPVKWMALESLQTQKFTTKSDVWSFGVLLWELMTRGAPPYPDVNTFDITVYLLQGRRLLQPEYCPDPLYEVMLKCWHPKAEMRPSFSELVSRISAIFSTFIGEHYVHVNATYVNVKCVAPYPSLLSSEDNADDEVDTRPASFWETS
Excerpt: Compounds of the formula I, for example, are able to inhibit c-Met kinase as mentioned already in the introduction. Using the sequence disclosed by Chan et al. (see Chan, A M-L, King H W S, Tempest P R, Deakin E A, Cooper C S, Brookes P. Primary structure of the met protein tyrosine kinase domain. Oncogene 1987; 12:229-233), a construct with this sequence, after hooking to a GST tag, was cloned into baculovirus and expressed in Sf9 cells. After partial purification by affinity chromatography on GST agarose resulting in a >90% pure preparation (SDS-PAGE), the kinase activity of this construct is used for inhibition assays using the compounds of formula I. The quality of the purified kinase preparations is highly reproducible: 9 batches of c-Met gives an average specific activity of 32.3±5.7 nmol/mg·min.
For inhibition studies, the following experimental protocol is used:
In vitro protein kinase assays are performed in 96-well plates. The amount of enzyme used in kinase assays and the incubation time for the kinase reaction are adjusted so that maximally 25% (in routine experiments <10%) of the substrate ATP are consumed.
Test compounds of the formula I are first dissolved in DMSO at a concentration of 1-10 mM (stock solution) and then further diluted with water/3% DMSO as required so that the final DMSO concentration in the assay is 1%.
The assay components are mixed in the following order: • 10 μl 3×compound (in 3% DMSO) • 10 μl 3×assay mix (MgCl2/MnCl2/ATP/^33P-ATP/poly(EY)) • 10 μl 3×enzyme dilution
Assays are incubated for 15 min (in special cases up to 60 min) at ambient temperature, reactions terminated by addition of 10 μl 0.25 M EDTA pH 7, then 20 μl transferred to a Millipore Immobilon^P membrane (previously soaked for 5 min with methanol, rinsed with water, then soaked for 5 min with 0.5% H3PO4 and mounted on vacuum manifold) with disconnected vacuum source. After spotting all samples, vacuum is connected and each well rinsed with 200 μl 0.5% H3PO4. Membranes are removed and washed 4× on shaker with 0.5% H3PO4, once with methanol. Membranes are counted after drying at ambient temperature, mounting in Packard TopCount 96-well frame, and addition of 10 μl/well of the scintillator Microscint™ (Packard).
IC50 values are calculated by logarithmic regression analysis of the percentage inhibition of each compound at 4 concentrations (usually 3- or 10-fold dilution series starting at 10 μM). In each experiment, the actual inhibition by reference compound is used for normalization of IC50 values to the basis of an average value of the reference inhibitor: Normalized IC50=measured IC50·average ref. IC50/measured ref. IC50 Example: • Reference inhibitor in experiment 0.4 μM, average 0.3 μM • Test compound in experiment 1.0 μM, normalization: 1.0·0.3/0.4=0.75 μM
For example, staurosporine or a synthetic staurosporine derivative are used as reference compounds.

Abl = target: T3, Abl (Homo sapiens, UniProt P00519); assay: Inhibition of c-Abl protein-tyrosine kinase (filter binding assay); assay type: biochemical; conditions: His-tagged c-Abl kinase domain, Poly-AEKY, 5 μM ATP; read-out: IC50 range class, inhibition of Abl in vitro
T3 construct: The His-tagged kinase domain of c-Abl is cloned and expressed in the baculovirus/Sf9 system; His; made in house; host or cells: baculovirus / Sf9 cells
T3 sequence (P00519 242-493 limits assumed): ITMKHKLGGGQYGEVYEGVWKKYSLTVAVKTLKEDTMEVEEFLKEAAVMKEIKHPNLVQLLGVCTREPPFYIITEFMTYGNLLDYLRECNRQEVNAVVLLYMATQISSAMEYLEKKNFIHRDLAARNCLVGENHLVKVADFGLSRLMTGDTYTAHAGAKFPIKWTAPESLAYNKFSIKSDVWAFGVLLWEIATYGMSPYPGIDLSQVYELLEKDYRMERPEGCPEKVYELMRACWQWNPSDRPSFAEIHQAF
Description: An in vitro enzyme assay is performed in 96-well plates as a filter binding assay as described by Geissler et al. in Cancer Res. 1992; 52:4492-4498, with the following modifications. The His-tagged kinase domain of c-Abl is cloned and expressed in the baculovirus/Sf9 system as described by Bhat et al. in J. Biol. Chem. 1997; 272:16170-16175. A protein of 37 kD (c-Abl kinase) is purified by a two-step procedure over a Cobalt metal chelate column followed by an anion exchange column with a yield of 1-2 mg/L of Sf9 cells (Bhat et al., reference cited). The purity of the c-Abl kinase is >90% as judged by SDS-PAGE after Coomassie blue staining. The assay contains (total volume of 30 μL): c-Abl kinase (50 ng), 20 mM Tris.HCl, pH 7.5, 10 mM MgCl2, 10 μM Na3VO4, 1 mM DTT and 0.06 μCi/assay [γ^33 P]-ATP (5 μM ATP) using 30 μg/mL poly-Ala,Glu,Lys,Tyr-6:2:5:1 (Poly-AEKY, Sigma P1152) in the presence of 1% DMSO. Reactions are terminated by adding 10 μL of 250 mM EDTA and 30 μL of the reaction mixture is transferred on to Immobilon-PVDF membrane (Millipore, Bedford, Mass., USA) previously soaked for 5 min with methanol, rinsed with water, then soaked for 5 min with 0.5% H3PO4 and mounted on vacuum manifold with disconnected vacuum source. After spotting all samples, vacuum is connected and each well rinsed with 200 μL 0.5% H3PO4. Membranes are removed and washed on a shaker with 0.5% H3PO4 (4 times) and once with ethanol. Membranes are counted after drying at ambient temperature, mounting in Packard TopCount 96-well frame, and addition of 10 μL/well of Microscint™ (Packard).

Compound | IC50 (Kdr) | IC50 (CDK1) | IC50 (c-Met) | IC50 (Abl)
CC(C)n1c(=O)n(-c2ccccc2Cl)c2c3cc(Br)ccc3ncc21 [Example 114, 8-Bromo-1-(2-chloro-phenyl)-3-isopropyl-1,3-dihydro-imidazo[4,5-c]quinolin-2-one] | ≤ 500 nM | ≤ 500 nM | 500 to 1000 nM | 
CCn1c(=O)n(-c2ccccc2Cl)c2c3cc(Br)ccc3ncc21 [Example 113, 8-Bromo-1-(2-chloro-phenyl)-3-ethyl-1,3-dihydro-imidazo[4,5-c]quinolin-2-one] | 1000 to 2000 nM | 1000 to 2000 nM | ≤ 500 nM | 
Nc1cccc(-n2cnc3cnc4ccc(-c5ccccc5)cc4c32)c1 [Example 58, 3-(8-Phenyl-imidazo[4,5-c]quinolin-1-yl)-phenylamine] | ≤ 500 nM |  |  | ≤ 500 nM
COc1ccccc1-c1ccc2ncc3ncn(-c4ccccc4Cl)c3c2c1 [Example 142, 1-(2-Chloro-phenyl)-8-(2-methoxy-phenyl)-1H-imidazo[4,5-c]quinoline] |  |  |  | ≤ 500 nM
OCc1cccc(-n2cnc3cnc4ccc(-c5ccccc5)cc4c32)c1 [Example 62, [3-(8-Phenyl-imidazo[4,5-c]quinolin-1-yl)-phenyl]-methanol] | ≤ 500 nM |  |  | ≤ 500 nM
COc1ccc2ncc3ncn(-c4ccccc4)c3c2c1 [Example 48, 8-Methoxy-1-phenyl-1H-imidazo[4,5-]quinoline] | 1000 to 2000 nM |  |  | 
O=c1[nH]c2cnc3ccc(Br)cc3c2n1-c1ccccc1Cl [Example 93, 8-Bromo-1-(2-chloro-phenyl)-1,3-dihydro-imidazo[4,5-c]quinolin-2-one] | 500 to 1000 nM |  | ≤ 500 nM | 
O=c1n(CC2CC2)c2cnc3ccc(Cl)cc3c2n1-c1ccccc1Cl [Example 128, 8-Chloro-1-(2-chloro-phenyl)-3-(cyclopropyl-methyl)-1,3-dihydro-imidazo[4,5-c]quinolin-2-one] |  | 500 to 1000 nM |  | 
Cn1c(=O)n(-c2ccccc2Cl)c2c3cc(Br)ccc3ncc21 [Example 104, 8-Bromo-1-(2-chloro-phenyl)-3-methyl-1,3-dihydro-imidazo[4,5-c]quinolin-2-one] |  | 1000 to 2000 nM | ≤ 500 nM | 
COc1cccc(-c2ccc3ncc4ncn(-c5ccccc5Cl)c4c3c2)c1 [Example 140, 1-(2-Chloro-phenyl)-8-(3-methoxy-phenyl)-1H-imidazo[4,5-c]quinoline] | ≤ 500 nM |  |  | ≤ 500 nM
CCc1ccc2ncc3ncn(-c4ccccc4F)c3c2c1 [Example 50, 8-Ethyl-1-(2-fluoro-phenyl)-1H-imidazo[4,5-c]quinoline] |  | ≤ 500 nM | ≤ 500 nM | 
CCn1c(=O)n(-c2ccccc2Cl)c2c3cc(Cl)ccc3ncc21 [Example 108, 8-Chloro-1-(2-chloro-phenyl)-3-ethyl-1,3-dihydro-imidazo[4,5-c]quinolin-2-one] | ≤ 500 nM | ≤ 500 nM | 500 to 1000 nM | 
